Experimental data: the supplement of paper PMC6004109

Tests used:
Details in all cases: temperature: 37 °C
[1] = tested on: Saccharomyces cerevisiae ZIM 2566 (RPMI); test: FICI maximum (fractional inhibitory concentration index, Loewe) (dimensionless); higher = less synergy / more antagonism
Description: (§1)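 CLSI M27-A3 checkerboard broth microdilution of an immunomodulatory drug (or amoxicillin) combined with an antifungal against S. cerevisiae and C. glabrata isolates. Growth was read as OD600 after incubation at 37 °C (48 h for the reported MICs). Reported quantities are the FICI (Loewe: MIC50 for azoles and immunomodulators, MIC90 for AMB; ≤0.5 synergy, ≥4 antagonism), as minimum and maximum over the surface, and the Bliss-independence sum of statistically significant ΔE (positive = synergy). Clinical isolates were tested in RPMI; C. glabrata ATCC 2001 and its pdr1Δ mutant were tested in YPD.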

[2] = tested on: Saccharomyces cerevisiae ZIM 2255 (RPMI); test: as above
Description: as §1

[3] = tested on: Candida glabrata ZIM 2382 (RPMI); test: as above
Description: as §1

[4] = tested on: Saccharomyces cerevisiae ZIM 2247 (RPMI); test: as above
Description: as §1

[5] = tested on: Candida glabrata ZIM 2344 (RPMI); test: as above
Description: as §1

[6] = tested on: Saccharomyces cerevisiae ZIM 2269 (RPMI); test: as above
Description: as §1

[7] = tested on: Saccharomyces cerevisiae ZIM 2558 (RPMI); test: as above
Description: as §1

[8] = tested on: Candida glabrata ZIM 2385 (RPMI); test: as above
Description: as §1

[9] = tested on: Candida glabrata ZIM 2369 (RPMI); test: as above
Description: as §1

[10] = tested on: Candida glabrata ZIM 2365 (RPMI); test: as above
Description: as §1

[11] = tested on: Saccharomyces cerevisiae ZIM 2260 (RPMI); test: as above
Description: as §1

[12] = tested on: Candida glabrata ZIM 2389 (RPMI); test: as above
Description: as §1

[13] = tested on: Saccharomyces cerevisiae ZIM 2255 (RPMI); test: Bliss independence sum of statistically significant ΔE (measured minus predicted growth inhibition) over checkerboard surface (fraction (sum of ΔE; 1 = 100%)); higher = more synergy
[14] = tested on: Candida glabrata ZIM 2382 (RPMI); test: as above
[15] = tested on: Saccharomyces cerevisiae ZIM 2247 (RPMI); test: as above
[16] = tested on: Candida glabrata ZIM 2369 (RPMI); test: as above
[17] = tested on: Saccharomyces cerevisiae ZIM 2566 (RPMI); test: FICI minimum (fractional inhibitory concentration index, Loewe) (dimensionless); higher = less synergy / more antagonism
Description: as §1

[18] = tested on: Saccharomyces cerevisiae ZIM 2255 (RPMI); test: as above
Description: as §1

[19] = tested on: Candida glabrata ZIM 2382 (RPMI); test: as above
Description: as §1

[20] = tested on: Saccharomyces cerevisiae ZIM 2247 (RPMI); test: as above
Description: as §1

[21] = tested on: Candida glabrata ZIM 2344 (RPMI); test: as above
Description: as §1

[22] = tested on: Saccharomyces cerevisiae ZIM 2269 (RPMI); test: as above
Description: as §1

[23] = tested on: Saccharomyces cerevisiae ZIM 2558 (RPMI); test: as above
Description: as §1

[24] = tested on: Candida glabrata ZIM 2385 (RPMI); test: as above
Description: as §1

[25] = tested on: Candida glabrata ZIM 2369 (RPMI); test: as above
Description: as §1

[26] = tested on: Candida glabrata ZIM 2365 (RPMI); test: as above
Description: as §1

[27] = tested on: Saccharomyces cerevisiae ZIM 2260 (RPMI); test: as above
Description: as §1

[28] = tested on: Candida glabrata ZIM 2389 (RPMI); test: as above
Description: as §1

## CN(Cc1cnc2nc(N)nc(N)c2n1)c1ccc(C(=O)N[C@@H](CCC(=O)O)C(=O)O)cc1 [methotrexate] + OC(Cn1cncn1)(Cn1cncn1)c1ccc(F)cc1F [fluconazole]
[1]
  FICI maximum: 2.16
[2]
  FICI maximum: 1.08
[3]
  FICI maximum: 2.16
[4]
  FICI maximum: 1.16
[5]
  FICI maximum: 0.656
[6]
  FICI maximum: 1.08
[7]
  FICI maximum: 1.04
[8]
  FICI maximum: 2.16
[9]
  FICI maximum: 1.16
[10]
  FICI maximum: 1.16
[11]
  FICI maximum: 2
[12]
  FICI maximum: 1.16
[13]
  Bliss independence sum: -0.754
[14]
  Bliss independence sum: -1.36
[15]
  Bliss independence sum: -0.857
[16]
  Bliss independence sum: 0.22
[17]
  FICI minimum: 1
[18]
  FICI minimum: 1
[19]
  FICI minimum: 1
[20]
  FICI minimum: 1
[21]
  FICI minimum: 0.505
[22]
  FICI minimum: 0.656
[23]
  FICI minimum: 0.406
[24]
  FICI minimum: 1
[25]
  FICI minimum: 1
[26]
  FICI minimum: 1
[27]
  FICI minimum: 1.01
[28]
  FICI minimum: 0.505

## CC1(C)S[C@@H]2[C@H](NC(=O)[C@H](N)c3ccc(O)cc3)C(=O)N2[C@H]1C(=O)O [amoxicillin] + C[C@@H]1[C@H](O)[C@@H](C)/C=C/C=C/C=C/C=C/C=C/C=C/C=C/[C@H](O[C@@H]2O[C@H](C)[C@@H](O)[C@H](N)[C@@H]2O)C[C@@H]2O[C@](O)(C[C@@H](O)C[C@@H](O)[C@H](O)CC[C@@H](O)C[C@@H](O)CC(=O)O[C@H]1C)C[C@H](O)[C@H]2C(=O)O [amphotericin B]
[1]
  FICI maximum: 4.25
[2]
  FICI maximum: 1.25
[3]
  FICI maximum: 1.25
[4]
  FICI maximum: 1.25
[5]
  FICI maximum: 1.25
[6]
  FICI maximum: 1.25
[7]
  FICI maximum: 8.78
[8]
  FICI maximum: 1.25
[9]
  FICI maximum: 1.25
[10]
  FICI maximum: 1.25
[11]
  FICI maximum: 1.25
[12]
  FICI maximum: 1.25
[13]
  Bliss independence sum: -2.26
[14]
  Bliss independence sum: 0.631
[15]
  Bliss independence sum: -2.91
[16]
  Bliss independence sum: -0.462
[17]
  FICI minimum: 0.562
[18]
  FICI minimum: 1.01
[19]
  FICI minimum: 0.508
[20]
  FICI minimum: 1.01
[21]
  FICI minimum: 0.133
[22]
  FICI minimum: 1.01
[23]
  FICI minimum: 2.02
[24]
  FICI minimum: 0.508
[25]
  FICI minimum: 1.01
[26]
  FICI minimum: 0.258
[27]
  FICI minimum: 1.01
[28]
  FICI minimum: 0.508

## COc1c(C)c2c(c(O)c1C/C=C(\C)CCC(=O)O)C(=O)OC2 [mycophenolic acid] + OC(Cn1cncn1)(Cn1cncn1)c1ccc(F)cc1F [fluconazole]
[1]
  FICI maximum: 2.27
[2]
  FICI maximum: 2.02
[3]
  FICI maximum: 4.25
[4]
  FICI maximum: 2.53
[5]
  FICI maximum: 1.25
[6]
  FICI maximum: 2.25
[7]
  FICI maximum: 4.25
[8]
  FICI maximum: 2.25
[9]
  FICI maximum: 4.25
[10]
  FICI maximum: 8.5
[11]
  FICI maximum: 2.02
[12]
  FICI maximum: 2.25
[13]
  Bliss independence sum: -3.66
[14]
  Bliss independence sum: -1.7
[15]
  Bliss independence sum: -2.82
[16]
  Bliss independence sum: -2.4
[17]
  FICI minimum: 1.01
[18]
  FICI minimum: 2.5
[19]
  FICI minimum: 1.01
[20]
  FICI minimum: 2.02
[21]
  FICI minimum: 1.01
[22]
  FICI minimum: 1.01
[23]
  FICI minimum: 1.01
[24]
  FICI minimum: 0.508
[25]
  FICI minimum: 1.01
[26]
  FICI minimum: 1.02
[27]
  FICI minimum: 0.66
[28]
  FICI minimum: 1.01

## CN(Cc1cnc2nc(N)nc(N)c2n1)c1ccc(C(=O)N[C@@H](CCC(=O)O)C(=O)O)cc1 [methotrexate] + C[C@@H]1[C@H](O)[C@@H](C)/C=C/C=C/C=C/C=C/C=C/C=C/C=C/[C@H](O[C@@H]2O[C@H](C)[C@@H](O)[C@H](N)[C@@H]2O)C[C@@H]2O[C@](O)(C[C@@H](O)C[C@@H](O)[C@H](O)CC[C@@H](O)C[C@@H](O)CC(=O)O[C@H]1C)C[C@H](O)[C@H]2C(=O)O [amphotericin B]
[1]
  FICI maximum: 1.16
[2]
  FICI maximum: 1.5
[3]
  FICI maximum: 1.16
[4]
  FICI maximum: 1.16
[5]
  FICI maximum: 1.08
[6]
  FICI maximum: 1.16
[7]
  FICI maximum: 2.16
[8]
  FICI maximum: 2.16
[9]
  FICI maximum: 1.16
[10]
  FICI maximum: 1.16
[11]
  FICI maximum: 1.16
[12]
  FICI maximum: 1.16
[13]
  Bliss independence sum: 0.262
[14]
  Bliss independence sum: -0.569
[15]
  Bliss independence sum: -2.39
[16]
  Bliss independence sum: 0.0762
[17]
  FICI minimum: 1
[18]
  FICI minimum: 0.516
[19]
  FICI minimum: 1
[20]
  FICI minimum: 1
[21]
  FICI minimum: 0.656
[22]
  FICI minimum: 1
[23]
  FICI minimum: 1
[24]
  FICI minimum: 2
[25]
  FICI minimum: 1
[26]
  FICI minimum: 1
[27]
  FICI minimum: 1
[28]
  FICI minimum: 1

## C=CC[C@@H]1/C=C(\C)C[C@H](C)C[C@H](OC)[C@H]2O[C@@](O)(C(=O)C(=O)N3CCCC[C@H]3C(=O)O[C@H](/C(C)=C/[C@@H]3CC[C@@H](O)[C@H](OC)C3)[C@H](C)[C@@H](O)CC1=O)[C@H](C)C[C@@H]2OC [tacrolimus] + OC(Cn1cncn1)(Cn1cncn1)c1ccc(F)cc1F [fluconazole]
[1]
  FICI maximum: 1
[2]
  FICI maximum: 1
[3]
  FICI maximum: 0.5
[4]
  FICI maximum: 1
[5]
  FICI maximum: 0.5
[6]
  FICI maximum: 1
[7]
  FICI maximum: 1
[8]
  FICI maximum: 1.01
[9]
  FICI maximum: 1
[10]
  FICI maximum: 1
[11]
  FICI maximum: 1
[12]
  FICI maximum: 1
[13]
  Bliss independence sum: 2.75
[14]
  Bliss independence sum: 1.68
[15]
  Bliss independence sum: 8.81
[16]
  Bliss independence sum: 1.98
[17]
  FICI minimum: 0.135
[18]
  FICI minimum: 0.156
[19]
  FICI minimum: 0.5
[20]
  FICI minimum: 0.126
[21]
  FICI minimum: 0.25
[22]
  FICI minimum: 0.255
[23]
  FICI minimum: 0.135
[24]
  FICI minimum: 1
[25]
  FICI minimum: 0.5
[26]
  FICI minimum: 1
[27]
  FICI minimum: 0.135
[28]
  FICI minimum: 0.253
